Results on three compounds are retold here after patent publication US12473339B2, “Acylated glucagon analogues” (Zealand Pharma A/S, priority 2013, dated 2025).

Series [1] concerns the target T1, human glucagon-like peptide 1 receptor (GLP-1R) (Homo sapiens, UniProt P43220).
T1 construct: expressed in transfected cells
As to the kind of experiment: GLP-1 receptor efficacy assay (cAMP AlphaScreen, CHO cells). It is filed as cell-based. The conditions noted are these: for Ratio GLP-1/Glucagon: EC50 [GLP-1R] / EC50 [Glucagon-R], human receptors in CHO-K1; for EC50: cAMP formation, CHO cells expressing human GLP-1-R, 15 min, read-out: EC50 hGLP-1R CHO-K1. The text has this:
(§1) The cDNA encoding either the human glucagon receptor (Glucagon-R) (primary accession number P47871) or the human glucagon-like peptide 1 receptor (GLP-1R) (primary accession number P43220) were synthesized and cloned into a mammalian expression vector containing a Zeocin resistance marker.
(§2) The mammalian expression vectors encoding the Glucagon-R or the GLP-1-R were transfected into Chinese hamster ovary (CHO) cells by the Attractene method. Stably expressing clones were obtained by Zeocin selection (250 μg/mL) upon limited dilution of cells resistant to the selection pressure. Glucagon-R and GLP-1-R cell clones expressing were picked, propagated and tested in the Glucagon-R and GLP-1-R efficacy assays as described below. One Glucagon-R expressing clone and one GLP-1-R expressing clone were chosen for compound profiling.
(§3) CHO cells expressing the human Glucagon-R, or human GLP-1-R were seeded 24 hours prior to the assay at 30,000 cells per well in 96-well microtiter plates in culture in 100 μl growth medium. On the day of analysis, growth medium was removed and the cells were washed once with 200 μl of assay buffer (Krebs-Ringer-buffer—KRBH). The buffer was removed and the cells were incubated for 15 min at room temperature in 10 μl KRBH (KRBH+10 mM HEPES, 5 mM NaHCO3, 0.1% (V/V) BSA) with 0.1 mM IBMX in deionized water containing increasing concentrations of test peptides. The reaction was stopped by the addition of lysis buffer (0.1% w/v BSA, 5 mM HEPES, 0.3% v/v Tween-20). After cell lysis for 10 min at room temperature, lysates were transferred to 384-well plates and 10 μl of acceptor/donorbead mixture as contained in the AlphaScreen™ cAMP Functional Assay Kit was added. After one hour of incubation at room temperature in the dark, the cAMP content was determined applying the AlphaScreen™ cAMP Functional Assay Kit from Perkin-Elmer according to manufacturer instructions. EC50 and relative efficacies compared to reference compounds (glucagon and GLP-1) were calculated applying computer aided curve fitting. The GLP-1/glucagon ratio is calculated as defined earlier.
Background: In Alpha technology, singlet oxygen from a donor bead excites a nearby acceptor bead.

Series [2] is described as follows: Pharmacokinetic parameters after intravenous administration to rats. The conditions noted are these: male, Han/Wistar, rat, in vivo, 20 nmol/kg. On the procedure:
Pharmacokinetic parameters of the test compounds were determined after intravenous administration to Han/Wistar rats. The acylated GLP-1 analogue semaglutide was also tested for comparison purposes. Male Wistar rats were obtained from Charles River (Germany) weighing approximately 180 to 210 g at time of arrival at the test facility. Rats were caged in European standard rat cages type IV with light cycle of 12-hour dark and 12-hour light. During the study rats were housed in standard rat cages type III. Both diet Altromin 1324 (Altromin, Germany) and water was administered ad libitum during the whole experimental period. The animals were housed in the test facility for at least 4 days in order to assure proper acclimatization. The compounds were first dissolved in 0.1% aqueous ammonia to a nominal concentration of 2 mg/ml, and then diluted to the desired dosing strength (10 μM) in sterile PBS containing 25 mM phosphate buffer, pH 7.4. Intravenous injections corresponding to 20 nmol/kg were given via a lateral tail vein. Blood samples (200 μl) were collected from the periorbital plexus at time points 0.08, 0.25, 0.5, 1, 2, 4, 8, 24, 32 and 48 h post dosing into K3EDTA tubes and centrifuged for 5 minutes at 4° C. within 20 minutes of sampling. […] Individual plasma concentration-time profiles were analysed by a non-compartmental approach using ToxKin™ version 3.2 (Unilog IT Services), and the resulting pharmacokinetic parameters were determined.

Series [3] concerns the target T2, human glucagon receptor (Glucagon-R) (Homo sapiens, UniProt P47871).
T2 construct: expressed in transfected cells
As to the kind of experiment: Glucagon receptor efficacy assay (cAMP AlphaScreen, CHO cells). The conditions noted are these: cAMP formation, CHO cells expressing human Glucagon-R, 15 min; read-out: EC50 hGCGR CHO-K1. The class given is cell-based.
Text: as §1, §2, §3

Usually EC50 stands for the concentration needed to bring the measured effect to its halfway point. The term MRT denotes the average time that molecules of a dose stay in the body. Broadly, the clearance is a measure of how efficiently the substance is removed, as volume per time. Low values mean inefficient removal, high ones efficient removal. The half-life is the time in which the quantity being followed falls by half.

*1 amine or outer side, *2 acyl side, *3 side chain or, on linkers, in order; H or OH if unused. Where a SMILES comes first, the peptide text is derived from it. Side-chain parts run from the residue outwards. [ ]: non-standard residue; d: D form. The star is where a group is joined. C18 diacid = O=C(O)CCCCCCCCCCCCCCCCC(=O)*; γGlu = O=C(O)[C@H](CCC(=O)[*:2])N[*:1]; Ac4c = NC1(C(=O)O)CCC1; AEEA = NCCOCCOCC(=O)O

T1 sequence (P43220 24-463): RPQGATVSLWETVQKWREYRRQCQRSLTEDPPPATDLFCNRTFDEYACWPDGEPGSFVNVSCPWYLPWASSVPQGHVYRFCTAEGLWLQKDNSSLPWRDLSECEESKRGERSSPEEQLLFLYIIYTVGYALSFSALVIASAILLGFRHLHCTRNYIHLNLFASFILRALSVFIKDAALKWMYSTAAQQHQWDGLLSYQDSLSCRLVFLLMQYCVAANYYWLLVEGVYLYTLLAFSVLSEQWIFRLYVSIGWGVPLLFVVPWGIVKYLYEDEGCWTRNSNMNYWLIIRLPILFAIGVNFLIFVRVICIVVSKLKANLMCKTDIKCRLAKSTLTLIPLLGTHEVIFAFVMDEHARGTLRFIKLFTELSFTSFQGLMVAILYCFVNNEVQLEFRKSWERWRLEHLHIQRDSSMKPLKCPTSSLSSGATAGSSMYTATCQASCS
T2 sequence (P47871 26-477): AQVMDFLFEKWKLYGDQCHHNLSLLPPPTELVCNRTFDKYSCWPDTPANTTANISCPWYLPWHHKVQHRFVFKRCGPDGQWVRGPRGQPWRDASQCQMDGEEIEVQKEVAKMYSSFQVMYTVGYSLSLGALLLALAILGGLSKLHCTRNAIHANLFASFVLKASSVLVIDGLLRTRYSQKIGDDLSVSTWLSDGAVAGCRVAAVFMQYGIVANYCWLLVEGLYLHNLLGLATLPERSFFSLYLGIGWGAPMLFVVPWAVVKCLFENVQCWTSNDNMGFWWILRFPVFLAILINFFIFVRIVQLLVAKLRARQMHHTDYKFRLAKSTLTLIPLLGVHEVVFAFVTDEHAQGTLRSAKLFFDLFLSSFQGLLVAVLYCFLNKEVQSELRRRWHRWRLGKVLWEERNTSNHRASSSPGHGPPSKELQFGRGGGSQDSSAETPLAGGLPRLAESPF

In the case of `CC[C@H](C)[C@H](NC(=O)[C@H](Cc1ccccc1)NC(=O)[C@H](CC(=O)O)NC(=O)[C@H](CCCCN)NC(=O)[C@H](C)NC(=O)[C@H](C)NC(=O)[C@H](CCCNC(=N)N)NC(=O)[C@H](CCC(=O)O)NC(=O)[C@H](CC(=O)O)NC(=O)[C@H](CC(C)C)NC(=O)[C@H](Cc1ccc(O)cc1)NC(=O)[C@H](CCCCN)NC(=O)[C@H](CO)NC(=O)[C@H](Cc1ccc(O)cc1)NC(=O)[C@H](CC(=O)O)NC(=O)[C@H](CO)NC(=O)[C@@H](NC(=O)[C@H](Cc1ccccc1)NC(=O)[C@@H](NC(=O)CNC(=O)[C@H](CCC(N)=O)NC(=O)C(C)(C)NC(=O)[C@@H](N)Cc1c[nH]cn1)[C@@H](C)O)[C@@H](C)O)C(=O)N[C@@H](CCCCNC(=O)CNC(=O)CNC(=O)[C@H](CO)NC(=O)CNC(=O)[C@H](CO)NC(=O)CNC(=O)CC[C@H](NC(=O)CCCCCCCCCCCCCCCCC(=O)O)C(=O)O)C(=O)N[C@@H](Cc1c[nH]c2ccccc12)C(=O)N[C@@H](CC(C)C)C(=O)N[C@@H](CCC(=O)O)C(=O)N[C@@H](CO)C(=O)N[C@@H](C)C(N)=O` [Compound 3], in series [1], the “Ratio GLP-1/Glucagon” value amounted to 0.47 and the EC50 turned out to be 0.7 nM. Further, in series [2], the MRT came to 28.7 h, the clearance stood at 3.36 mL/h/kg and the half-life was 23.4 h.
On the same counts, the results for `CC[C@H](C)[C@H](NC(=O)[C@H](Cc1ccccc1)NC(=O)[C@H](CC(=O)O)NC(=O)[C@H](CCCCN)NC(=O)[C@H](C)NC(=O)[C@H](CCCNC(=N)N)NC(=O)[C@H](CCCCNC(=O)COCCOCCNC(=O)COCCOCCNC(=O)CC[C@H](NC(=O)CCCCCCCCCCCCCCCCC(=O)O)C(=O)O)NC(=O)[C@H](CCC(=O)O)NC(=O)[C@H](CC(=O)O)NC(=O)[C@H](CC(C)C)NC(=O)[C@H](Cc1ccc(O)cc1)NC(=O)[C@H](CCCCN)NC(=O)[C@H](CO)NC(=O)[C@H](Cc1ccc(O)cc1)NC(=O)[C@H](CC(=O)O)NC(=O)[C@H](CO)NC(=O)[C@@H](NC(=O)[C@H](Cc1ccccc1)NC(=O)[C@@H](NC(=O)CNC(=O)[C@H](CCC(N)=O)NC(=O)C1(NC(=O)[C@@H](N)Cc2c[nH]cn2)CCC1)[C@@H](C)O)[C@@H](C)O)C(=O)N[C@@H](CCC(=O)O)C(=O)N[C@@H](Cc1c[nH]c2ccccc12)C(=O)N[C@@H](CC(C)C)C(=O)N[C@@H](CCC(=O)O)C(=O)N[C@@H](CO)C(=O)N[C@@H](C)C(N)=O` [Compound 4, H-H-Ac4c-QGTFTSDYSKYLDE-K([17-carboxy-heptadecanoyl]-isoGlu-Peg3-Peg3)-RAKDFIEWLESA-NH2] (H-H[Ac4c]QGTFTSDYSKYLDEK([AEEA-AEEA-γGlu-C18 diacid])RAKDFIEWLESA-NH2) are 1.56, 0.7 nM, 17.6 h, 6.6 mL/h/kg and 13.7 h.
As to `CC[C@H](C)[C@H](NC(=O)[C@H](Cc1ccccc1)NC(=O)[C@H](CC(=O)O)NC(=O)[C@H](CCCCN)NC(=O)[C@H](C)NC(=O)[C@H](C)NC(=O)[C@H](CCCNC(=N)N)NC(=O)[C@H](CCCCNC(=O)CNC(=O)CNC(=O)[C@H](CO)NC(=O)CNC(=O)[C@H](CO)NC(=O)CNC(=O)CC[C@H](NC(=O)CCCCCCCCCCCCCCCCC(=O)O)C(=O)O)NC(=O)[C@H](CC(=O)O)NC(=O)[C@H](CC(C)C)NC(=O)[C@H](Cc1ccc(O)cc1)NC(=O)[C@H](CCCCN)NC(=O)[C@H](CO)NC(=O)[C@H](Cc1ccc(O)cc1)NC(=O)[C@H](CC(=O)O)NC(=O)[C@H](CO)NC(=O)[C@@H](NC(=O)[C@H](Cc1ccccc1)NC(=O)[C@@H](NC(=O)CNC(=O)[C@H](CCC(N)=O)NC(=O)C(C)(C)NC(=O)[C@@H](N)Cc1c[nH]cn1)[C@@H](C)O)[C@@H](C)O)C(=O)N[C@@H](CCC(=O)O)C(=O)N[C@@H](Cc1c[nH]c2ccccc12)C(=O)N[C@@H](CC(C)C)C(=O)N[C@@H](CCC(=O)O)C(=O)N[C@@H](CO)C(=O)N[C@@H](C)C(N)=O` [Compound 5, H-H-Aib-QGTFTSDYSKYLD-K([17-carboxy-heptadecanoyl]-isoGlu-GSGSGG)-RAAKDFIEWLESA-NH2], the concentration for a half-maximal effect (EC50) in series [3] stood at 0.18 nM. Also, the “Ratio GLP-1/Glucagon” value in series [1] amounted to 4.61.
